Laboratory results: patent US20070225203A1, “Method and Composition for Preventing Multiple Organ Dysfunction Syndrome” (N.V. NUTRICIA, priority 2003, published 2007)

What was measured:
[1] = Oxidative stress, plasma concentrations of malon dialdehyde
xanthine oxidase = xanthine oxidase (Homo sapiens, UniProt P47989); test: Xanthine oxidase inhibition by flavonoids; type: biochemical
HepG2 cells = test: GTP concentration in folic acid challenged HepG2 cells; type: cell-based, human
Protocol: HepG2 cells, a human hepatocarcinoma cell line, were obtained from ATCC. These were maintained in MEM supplemented with 10% FCS; 1% NEAA; 1% penicillin/streptomycin mixture. Cells were seeded primarily at a density of approximately 1-2×10^6 cells and were split and transferred to new flasks when showing 70-90% confluency. 96-well microtitre plates (ex Micronic, Leylstad, N L.), containing 0.35×10^6 cells per well were incubated for 24 hours at 37° C.; 5% CO2. HepG2's were folic acid challenged by addition of folic acid free media for 1 hour. This folic acid challenged cells were compared with cells that remained at an increasing concentration of folic acid or ribose.
Nucleotides were measured as described by van Hoorn et al., Analytical Biochemistry (2003), 320, 82-87.
1. 6.5 hours incubation of HepG2 cells in either folic acid depleted media or media containing 2.27 μM folic acid

Sequence of xanthine oxidase (P47989 whole entry, species assumed): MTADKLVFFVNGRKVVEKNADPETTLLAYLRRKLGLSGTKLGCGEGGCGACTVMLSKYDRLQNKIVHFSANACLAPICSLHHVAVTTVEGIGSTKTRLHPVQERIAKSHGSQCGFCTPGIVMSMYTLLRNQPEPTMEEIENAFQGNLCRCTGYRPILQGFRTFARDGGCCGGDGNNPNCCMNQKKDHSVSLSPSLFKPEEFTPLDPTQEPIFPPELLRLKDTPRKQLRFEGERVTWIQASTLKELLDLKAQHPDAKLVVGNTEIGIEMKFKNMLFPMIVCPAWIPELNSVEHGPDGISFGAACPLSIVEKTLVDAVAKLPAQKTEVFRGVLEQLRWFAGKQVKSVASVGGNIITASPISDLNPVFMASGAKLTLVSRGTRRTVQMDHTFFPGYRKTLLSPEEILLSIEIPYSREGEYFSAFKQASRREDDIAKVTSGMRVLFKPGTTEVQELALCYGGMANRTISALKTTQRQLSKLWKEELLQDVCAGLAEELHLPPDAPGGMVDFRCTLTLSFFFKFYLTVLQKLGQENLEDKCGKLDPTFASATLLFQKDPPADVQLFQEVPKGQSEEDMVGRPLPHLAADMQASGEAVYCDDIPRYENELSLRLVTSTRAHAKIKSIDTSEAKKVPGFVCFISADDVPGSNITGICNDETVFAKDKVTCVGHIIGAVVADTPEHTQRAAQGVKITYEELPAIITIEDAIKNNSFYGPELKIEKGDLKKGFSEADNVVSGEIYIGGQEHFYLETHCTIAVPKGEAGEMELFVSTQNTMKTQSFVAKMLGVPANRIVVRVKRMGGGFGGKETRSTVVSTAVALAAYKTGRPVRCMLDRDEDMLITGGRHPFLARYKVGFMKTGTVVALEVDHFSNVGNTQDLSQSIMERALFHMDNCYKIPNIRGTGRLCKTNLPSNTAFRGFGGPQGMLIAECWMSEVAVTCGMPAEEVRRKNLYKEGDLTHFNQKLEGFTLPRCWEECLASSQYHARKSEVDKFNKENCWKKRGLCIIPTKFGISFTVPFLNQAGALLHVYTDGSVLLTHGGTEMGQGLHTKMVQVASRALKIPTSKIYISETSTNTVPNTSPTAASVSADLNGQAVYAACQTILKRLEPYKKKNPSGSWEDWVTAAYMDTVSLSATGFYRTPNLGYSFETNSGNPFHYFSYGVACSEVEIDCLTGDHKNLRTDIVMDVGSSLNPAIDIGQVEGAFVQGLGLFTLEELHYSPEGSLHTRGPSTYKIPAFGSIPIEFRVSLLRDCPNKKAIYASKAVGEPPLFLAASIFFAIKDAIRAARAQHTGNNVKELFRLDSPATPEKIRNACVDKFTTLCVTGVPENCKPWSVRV

xanthine oxidase inhibition (xanthine oxidase)	Compound	oxidative stress, plasma concentrations of malon dialdehyde [1]	GTP concentration in HepG2 cells (HepG2 cells; single agent vs folic acid challenged cells, folic acid 2.27 μM, 6.5 hours)	GTP concentration in HepG2 cells, ribose on top of folic acid (HepG2 cells; combination of ribose with folic acid, FIG. 10)
good xanthine oxidase inhibitors	O=c1cc(-c2ccc(O)c(O)c2)oc2cc(O)cc(O)c12 [luteolin]	inhibit oxidative stress	–	–
good xanthine oxidase inhibitors	O=c1cc(-c2ccc(O)cc2)oc2cc(O)cc(O)c12 [apigenin]	inhibit oxidative stress	–	–
–	Nc1nc2ncc(CNc3ccc(C(=O)N[C@@H](CCC(=O)O)C(=O)O)cc3)nc2c(=O)[nH]1 [folic acid]	–	significantly increased	–
–	O=C[C@H](O)[C@H](O)[C@H](O)CO [ribose]	–	–	additive effect

Compound	xanthine oxidase inhibition (xanthine oxidase)	oxidative stress, plasma concentrations of malon dialdehyde [1]	GTP concentration in HepG2 cells (HepG2 cells; single agent vs folic acid challenged cells, folic acid 2.27 μM, 6.5 hours)	GTP concentration in HepG2 cells, ribose on top of folic acid (HepG2 cells; combination of ribose with folic acid, FIG. 10)
O=c1c(O)c(-c2ccc(O)c(O)c2)oc2cc(O)cc(O)c12 [quercetin]	good xanthine oxidase inhibitors	inhibit oxidative stress	–	–
